Experimental data: patent US20240067633A1, “KETOHEXOKINASE INHIBITOR AND USE THEREOF” (SICHUAN HAISCO PHARMACEUTICAL CO., LTD., priority 2020, published 2024)
Values belong to the molecule of their own block, whether it stands above or below them.

What was measured:
[1] = Pharmacokinetic experiment in mice; type: in vivo, ICR mice
Protocol: 3.1 Experimental animals: male ICR mice, about 22 g, 6-8 weeks old, 18 mice/compound, purchased from Hunan SJA Laboratory Animal Co., Ltd.
3.2 Experimental design: On the day of the experiment, 18 ICR mice were randomly grouped according to their body weight. The animals were fasted with water available for 12 to 14 h one day before the administration, and were fed 4 h after the administration.
(§1) Vehicle for intravenous administration: 5% DMA+5% Solutol+90% Saline; Vehicle for intragastric administration: 0.5% MC
(§2) Before and after the administration, 0.08 mL of blood was taken from the orbit of the animals under isoflurane anaesthesia and placed in an EDTAK2 centrifuge tube. The blood was centrifuged at 5000 rpm and 4° C. for 10 min to collect plasma. Blood sampling time points for the intravenous administration group: 0, 5 min, 15 min, 30 min, 1 h, 2 h, 4 h, 6 h, 8 h, and 24 h; and blood sampling time points for the intragastric administration group: 0, 5 min, 15 min, 30 min, 1 h, 2 h, 4 h, 6 h, 8 h, and 24 h. Before analysis and detection, all samples were stored at −80° C.

[2] = target: hKHK-C (Homo sapiens (Human), UniProt P50053); assay: Experiment of inhibitory activity against KHK in vitro (ADP-glo), hKHKc; type: biochemical; conditions: purified hKHK-C, 50 mM fructose, 0.2 mM ATP
Protocol: (§3) With the involvement of ATP, fructokinase phosphorylates fructose to produce fructose-1-phosphate and ADP. In this experiment, the effect of the compound on the activity of fructokinase was determined by measuring the amount of ADP produced in the process. Test compound stocks were prepared in DMSO. Before use, the stocks were 3-fold serially diluted with assay buffers (25 mM HEPES, 300 mM KCl, 10 mM MgCl2, 10 mM CaCl2), pH 7.0) to 5-fold the final concentration tested, and the DMSO content was adjusted to 1%. In a 384-well plate, the test compound was added to achieve a final concentration of 7.6 nM to 100 μM (assay buffers containing 1% DMSO were added to background and control wells). 5 ng/μL purified hKHK-C (assay buffers were added to background wells), 50 mM fructose and 0.2 mM ATP were added to reach a total volume of 10 μL and reacted at room temperature for 30 min. After the reaction was completed, 10 μL of ADP-glo (promega) was added and mixed uniformly, and the plate was incubated at room temperature for 40 min. Then the ADP-glo was added again, mixed uniformly and reacted for 40 min. The spontaneous luminescence intensity was measured using an Envision microplate reader. The inhibition rate of the compound against […] was calculated using the following formula,
(§4) [formula] • wherein • RLUZPE=luminescence intensity of control well • RLUblank=luminescence intensity of background well • RLUcpd=luminescence intensity of test compound well
(§5) A curve of inhibition rate (y-axis) versus compound concentration (x-axis) was fitted by logarithmic (inhibitor) and normalized response (variable slope) in GraphPad Prism, and EC50 was calculated.

[3] = target: CYP2D6 (Homo sapiens (Human), UniProt P10635); assay: CYP450 enzyme inhibition test, mixed human liver microsomes; type: in vitro ADME; conditions: 0.05-50 μM
[4] = target: CYP3A4 (Homo sapiens (Human), UniProt P08684); assay: as above; type: in vitro ADME; conditions: 0.05-50 μM
[5] = Pharmacokinetic experiment in rats; type: in vivo, SD rats
Protocol: 2.1 Experimental animals: Male SD rats, about 220 g, 6-8 weeks old, 6 rats/compound, purchased from Hunan SJA Laboratory Animal Co., Ltd.
2.2 Experimental design: On the day of the experiment, 6 SD rats were randomly grouped according to their body weight. The animals were fasted with water available for 12 to 14 h one day before the administration, and were fed 4 h after the administration.
as §1
as §2, with “0.15” for “0.08”

[6] = target: hKHKa (Homo sapiens (Human), UniProt P50053); assay: Experiment of inhibitory activity against KHK in vitro (ADP-glo), hKHKa; type: biochemical
Protocol: [The source words this procedure for another variant and reports this variant under the same test.] as §3, §4, §5

[7] = target: rKHKc (Rattus norvegicus (Rat), UniProt Q02974); assay: Experiment of inhibitory activity against KHK in vitro (ADP-glo), rKHKc; type: biochemical
Protocol: [The source words this procedure for another species and reports this species under the same test.] as §3, with “5 ng/μL purified hKHK-C (assay buffers were added to background wells), 50 mM fructose and 0.2 mM ATP were added to reach a total volume of 10 μL and reacted at room temperature for 30 min. After the reaction was completed, 10 μL of ADP-glo (promega) was added and mixed uniformly, and the plate was incubated at room temperature for 40 min. Then the ADP-glo was added again, mixed uniformly and reacted for 40 min.” left out
as §4, §5

[8] = target: mKHKc (Mus musculus (Mouse), UniProt P97328); assay: Experiment of inhibitory activity against KHK in vitro (ADP-glo), mKHKc; type: biochemical
Protocol: [The source words this procedure for another species and reports this species under the same test.] as §3, with “5 ng/μL purified hKHK-C (assay buffers were added to background wells), 50 mM fructose and 0.2 mM ATP were added to reach a total volume of 10 μL and reacted at room temperature for 30 min. After the reaction was completed, 10 μL of ADP-glo (promega) was added and mixed uniformly, and the plate was incubated at room temperature for 40 min. Then the ADP-glo was added again, mixed uniformly and reacted for 40 min.” left out
as §4, §5

hKHK-C, sequence (P50053 whole entry): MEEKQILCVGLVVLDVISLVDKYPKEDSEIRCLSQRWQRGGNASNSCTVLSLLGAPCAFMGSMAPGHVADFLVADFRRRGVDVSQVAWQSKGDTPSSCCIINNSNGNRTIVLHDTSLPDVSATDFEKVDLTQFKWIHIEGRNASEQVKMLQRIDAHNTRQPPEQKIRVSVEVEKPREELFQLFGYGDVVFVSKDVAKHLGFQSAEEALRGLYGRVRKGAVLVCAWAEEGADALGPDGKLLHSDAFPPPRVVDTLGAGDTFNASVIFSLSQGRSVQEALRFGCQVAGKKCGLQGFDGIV
hKHKa, sequence (P50053 other isoform, or with tags, fused parts or gaps): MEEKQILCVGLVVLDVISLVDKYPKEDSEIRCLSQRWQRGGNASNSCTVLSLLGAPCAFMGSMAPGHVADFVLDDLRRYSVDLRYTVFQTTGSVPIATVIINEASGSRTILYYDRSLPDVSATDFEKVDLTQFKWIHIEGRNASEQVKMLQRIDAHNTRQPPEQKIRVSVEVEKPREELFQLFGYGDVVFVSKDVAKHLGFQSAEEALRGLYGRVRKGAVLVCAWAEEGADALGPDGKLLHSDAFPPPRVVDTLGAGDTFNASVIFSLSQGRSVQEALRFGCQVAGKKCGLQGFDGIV
rKHKc, sequence (Q02974 whole entry): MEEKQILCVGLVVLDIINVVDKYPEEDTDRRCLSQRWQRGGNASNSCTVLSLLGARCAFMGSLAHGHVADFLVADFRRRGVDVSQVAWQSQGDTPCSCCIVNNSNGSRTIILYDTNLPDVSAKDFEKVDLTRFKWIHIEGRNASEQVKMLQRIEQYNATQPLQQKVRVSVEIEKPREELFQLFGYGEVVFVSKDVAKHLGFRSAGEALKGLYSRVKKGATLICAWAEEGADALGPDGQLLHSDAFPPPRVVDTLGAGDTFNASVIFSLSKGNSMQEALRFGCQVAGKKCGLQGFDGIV
mKHKc, sequence (P97328 whole entry): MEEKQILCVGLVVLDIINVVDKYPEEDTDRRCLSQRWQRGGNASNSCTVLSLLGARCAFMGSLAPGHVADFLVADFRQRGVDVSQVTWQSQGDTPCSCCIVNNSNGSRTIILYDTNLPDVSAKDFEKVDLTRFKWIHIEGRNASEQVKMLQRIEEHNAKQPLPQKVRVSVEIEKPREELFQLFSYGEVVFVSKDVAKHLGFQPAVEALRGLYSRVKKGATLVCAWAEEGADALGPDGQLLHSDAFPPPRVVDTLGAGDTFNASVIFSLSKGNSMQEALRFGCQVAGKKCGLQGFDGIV
CYP2D6, sequence (P10635 whole entry): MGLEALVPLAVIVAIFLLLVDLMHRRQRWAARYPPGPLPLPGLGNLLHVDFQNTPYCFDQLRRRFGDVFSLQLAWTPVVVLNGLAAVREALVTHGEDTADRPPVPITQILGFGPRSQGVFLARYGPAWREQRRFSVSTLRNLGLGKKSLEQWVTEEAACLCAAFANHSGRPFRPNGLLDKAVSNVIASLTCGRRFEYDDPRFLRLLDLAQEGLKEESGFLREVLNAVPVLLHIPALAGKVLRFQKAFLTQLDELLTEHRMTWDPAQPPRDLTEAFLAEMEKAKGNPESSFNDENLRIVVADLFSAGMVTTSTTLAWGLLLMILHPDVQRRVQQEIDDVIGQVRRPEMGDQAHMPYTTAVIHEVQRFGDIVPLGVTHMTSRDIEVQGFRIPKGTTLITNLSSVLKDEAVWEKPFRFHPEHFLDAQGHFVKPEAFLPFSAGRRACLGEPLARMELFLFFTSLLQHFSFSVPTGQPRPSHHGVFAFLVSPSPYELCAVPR
CYP3A4, sequence (P08684 whole entry): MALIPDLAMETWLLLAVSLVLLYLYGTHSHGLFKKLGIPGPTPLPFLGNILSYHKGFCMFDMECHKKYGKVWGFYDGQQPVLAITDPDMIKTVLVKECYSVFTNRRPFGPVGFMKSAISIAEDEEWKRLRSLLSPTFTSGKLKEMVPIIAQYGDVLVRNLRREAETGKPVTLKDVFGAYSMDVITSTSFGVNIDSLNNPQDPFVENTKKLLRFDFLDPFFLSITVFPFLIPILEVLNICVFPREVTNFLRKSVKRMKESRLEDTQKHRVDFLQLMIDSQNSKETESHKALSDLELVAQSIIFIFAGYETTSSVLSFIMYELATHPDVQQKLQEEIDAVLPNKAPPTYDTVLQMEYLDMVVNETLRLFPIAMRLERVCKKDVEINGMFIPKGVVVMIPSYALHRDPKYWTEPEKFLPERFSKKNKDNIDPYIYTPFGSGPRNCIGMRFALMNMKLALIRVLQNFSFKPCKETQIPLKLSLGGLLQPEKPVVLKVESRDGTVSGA

Molecule: 2-((1R,5S,6S)-3-(7,7-difluoro-2-((S)-2-(trifluoromethyl)azetidin-1-yl)-6,7-dihydro-5H-cyclopenta[d]pyrimidin-4-yl)-3-azabicyclo[3.1.1]heptan-6-yl)acetic acid [Isomer 2 of compound 20]
- F ([1]; i.g. 3 mg/kg): 87.2%
- AUC0-t ([1]; plasma, i.g. 3 mg/kg): 4807 ng·h/mL
- AUC0-t ([1]; plasma, i.v. 1 mg/kg): 1838 ng·h/mL
- CL ([1]; plasma, i.v. 1 mg/kg): 8.84 mL/min/kg
- Vdss ([1]; plasma, i.v. 1 mg/kg): 0.977 L/kg
- EC50 [2]: 49.8 nM
- IC50 [3]: > 50000 nM
- IC50 [4]: > 50000 nM
- F ([5]; i.g. 5 mg/kg): 111%
- AUC0-t ([5]; plasma, i.g. 5 mg/kg): 64058 ng·h/mL
- AUC0-t ([5]; plasma, i.v. 1 mg/kg): 11592 ng·h/mL
- CL ([5]; plasma, i.v. 1 mg/kg): 1.35 mL/min/kg
- Vdss ([5]; plasma, i.v. 1 mg/kg): 0.568 L/kg

- EC50 [6]: 59.7 nM
- EC50 [2]: 58.6 nM
Molecule: C[C@H]1CCN1c1nc(N2CCC(CC(=O)O)C2)c2c(c1C#N)C(F)(F)CC2 (single isomer, unassigned) [Isomer 1 of compound 8]

Molecule: C[C@H]1CCN1c1nc(N2C[C@H]3C[C@@H](C2)[C@@H]3CC(=O)O)c2c(n1)C(F)(F)CCC2 (single isomer, unassigned; isomer 2) [Isomer 2 of compound 3]
- EC50 [6]: 51.8 nM
- EC50 [2]: 37.4 nM
- EC50 [7]: 146 nM
- EC50 [8]: 134 nM

Molecule: C[C@H]1CCN1c1nc(N2C[C@H]3C[C@@H](C2)[C@@H]3CC(=O)O)c2c(n1)C(F)(F)CC2 (single isomer, unassigned; isomer 2) [Isomer 2 of compound 4]
- EC50 [2]: 19.4 nM

Molecule: O=C(O)C[C@H]1[C@@H]2C[C@H]1CN(c1nc(N3CC[C@H]3C(F)F)nc3c1CCC3(F)F)C2 (single isomer, unassigned; isomer 2) [Isomer 2 of compound 19]
- EC50 [2]: 60.6 nM

- EC50 [6]: 35.2 nM
- EC50 [2]: 36.5 nM
Molecule: C[C@H]1CCN1c1nc(N2CC(CC(=O)O)C2)c2c(c1C#N)C(F)(F)CC2 [Compound 7, (S)-2-(1-(4-cyano-5,5-difluoro-3-(2-methylazetidin-1-yl)-6,7-dihydro-5H-cyclopenta[c]pyridin-1-yl)azetidin-3-yl)acetic acid]

Molecule: [2H]C([2H])([2H])[C@H]1CCN1c1nc(N2C[C@H]3C[C@@H](C2)C3CC(=O)O)c2c(n1)C(F)(F)CC2 (stereo partly drawn) [Compound 16, 2-((1R,5S,6R)-3-(7,7-difluoro-2-((S)-2-(methyl-d3)azetidin-1-yl)-6,7-dihydro-5H-cyclopenta[d]pyrimidin-4-yl)-3-azabicyclo[3.1.1]heptan-6-yl)acetic acid]
- EC50 [2]: 37.7 nM

- EC50 [2]: 52.7 nM
Molecule: [2H]C([2H])([2H])[C@H]1CCN1c1nc(N2CC(CC(=O)O)C2)c2c(c1C#N)C(F)(F)CC2 [Compound 18, (S)-2-(1-(4-cyano-5,5-difluoro-3-(2-(methyl-d3)azetidin-1-yl)-6,7-dihydro-5H-cyclopenta[c]pyridin-1-yl)azetidin-3-yl)acetic acid]
